Results as given in article PMC10702835, “Recognition of centromere‐specific histone Cse4 by the inner kinetochore Okp1‐Ame1 complex” (EMBO Reports, 2023).

Key:
Okp1(EYAA)‐Ame1 = target: T1, Okp1(EYAA)‐Ame1 (Saccharomyces cerevisiae, UniProt P38313+P53298, E235A/Y238A); assay: biochemical; assay type: binding
T1 construct: Full‐length mutant Okp1‐Ame1 complex (EYAA or I195Y as indicated) was tested for its association with FITC‐Cse4^END; 6His (C); made in house; host or cells: E. coli
Procedure: (§1) Results of a GST pulldown assay are shown. • The minimal Okp1‐Ame1 complex used for crystallography was tested for its association with FITC‐Cse4^END in a fluorescence polarization experiment.
(§2) Fluorescence polarization assays
(§3) FITC‐Cse4^28‐60 peptide was synthesized by the Tufts University Core Facility. 20 nM of FITC‐Cse4^28‐60 peptide was used in all reactions, and Okp1‐Ame1 concentrations were varied to determine the dissociation constant (K D ), in reaction buffer containing 100 mM HEPES, pH 7.5, 200 mM NaCl, 1 mM TCEP (full‐length Okp1‐Ame1 complex) or reaction buffer with 600 mM NaCl (truncated Okp1‐Ame1 complex).

Okp1‐Ame1(I195Y) = target: T2, Okp1‐Ame1(I195Y) (Saccharomyces cerevisiae, UniProt P38313+P53298, I195Y); assay: biochemical; assay type: binding
T2 construct: Full‐length mutant Okp1‐Ame1 complex (EYAA or I195Y as indicated) was tested for its association with FITC‐Cse4^END; 6His (C); made in house; host or cells: E. coli
T2 sequence (P38313 whole entry I195Y): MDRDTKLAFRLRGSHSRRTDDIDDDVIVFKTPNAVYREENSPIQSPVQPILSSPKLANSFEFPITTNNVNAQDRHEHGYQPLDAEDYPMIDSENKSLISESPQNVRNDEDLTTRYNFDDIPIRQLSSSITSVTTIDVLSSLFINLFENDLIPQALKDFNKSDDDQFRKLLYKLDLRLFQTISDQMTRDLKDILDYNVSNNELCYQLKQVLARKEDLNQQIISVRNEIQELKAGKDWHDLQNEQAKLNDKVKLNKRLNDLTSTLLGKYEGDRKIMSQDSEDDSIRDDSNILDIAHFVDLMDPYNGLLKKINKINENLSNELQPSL
T2 sequence (P53298 whole entry): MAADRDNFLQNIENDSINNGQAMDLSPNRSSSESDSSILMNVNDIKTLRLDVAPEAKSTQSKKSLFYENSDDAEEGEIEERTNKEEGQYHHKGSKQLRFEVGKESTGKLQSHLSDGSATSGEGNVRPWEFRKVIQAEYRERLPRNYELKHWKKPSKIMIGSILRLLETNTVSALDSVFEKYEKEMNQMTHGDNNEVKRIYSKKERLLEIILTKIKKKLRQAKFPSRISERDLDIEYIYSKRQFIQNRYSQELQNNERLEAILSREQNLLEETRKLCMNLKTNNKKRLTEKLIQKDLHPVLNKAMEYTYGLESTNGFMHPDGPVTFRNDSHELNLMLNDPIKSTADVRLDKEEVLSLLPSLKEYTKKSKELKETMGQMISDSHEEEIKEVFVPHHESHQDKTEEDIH
Procedure: as §1, §2, §3

T1 sequence (P38313 whole entry): as the sequence (P38313 whole entry I195Y) above, with Y195I counted along it
T1 sequence (P53298 whole entry E235A/Y238A): as the sequence (P53298 whole entry) above, with E235A, Y238A counted along it

SMILES: CC[C@H](C)[C@H](NC(=O)[C@H](CO)NC(=O)[C@H](CCC(N)=O)NC(=O)[C@H](CCC(N)=O)NC(=O)[C@H](CC(=O)O)NC(=O)CNC(=O)[C@H](C)N)C(=O)N[C@@H](CC(N)=O)C(=O)N[C@@H](CC(=O)O)C(=O)N[C@@H](CCCNC(=N)N)C(=O)N[C@@H](C)C(=O)N[C@@H](CC(C)C)C(=O)N[C@@H](CO)C(=O)N[C@@H](CC(C)C)C(=O)N[C@@H](CC(C)C)C(=O)N[C@@H](CCC(N)=O)C(=O)N[C@@H](CCCNC(=N)N)C(=O)N[C@H](C(=O)N[C@@H](CCCNC(=N)N)C(=O)N[C@@H](C)C(=O)N[C@H](C(=O)N[C@@H](CCCCN)C(=O)N[C@@H](CC(N)=O)C(=O)N[C@@H](CC(C)C)C(=O)N[C@@H](Cc1ccccc1)C(=O)N1CCC[C@H]1C(=O)N[C@@H](CCCNC(=N)N)C(=O)N[C@@H](CCCNC(=N)N)C(=O)N[C@@H](CCC(=O)O)C(=O)N[C@@H](CCC(=O)O)C(=O)N[C@@H](CCCNC(=N)N)C(=O)N[C@@H](CCCNC(=N)N)C(=O)N[C@@H](CCCNC(=N)N)C(=O)O)[C@@H](C)O)[C@@H](C)O [Cse4^END]
- Kd (Okp1(EYAA)‐Ame1): > 3 µM
- Kd (Okp1‐Ame1(I195Y)): > 3 µM
